# Experimental data as given in patent US8835472B2, “Compounds, pharmaceutical compositions and uses thereof” (Boehringer Ingelheim International GmbH, priority 2010, dated 2014).
# Biological target: human ACC2 (Homo sapiens (Human), UniProt O00763)
# Assay: ACC2 assay, spectrophotometric 384 well assay (NADH-linked, coupled lactate dehydrogenase/pyruvate kinase reaction)
# Format: biochemical
# Conditions: hACC2 construct lacking the 128 N-terminal amino acids; 25° C., 340 nm over 15 minutes
# Protocol: Spectrophotometric 384 Well Assay
# Malonyl CoA formation by acetyl CoA carboxylases is stoichometrically linked to the consumption of ATP. ACC2 activity is measured in a NADH-linked kinetic method measuring ADP generated during the ACC reaction using a coupled lactate dehydrogenase/pyruvate kinase reaction.
# For biological testing, a human ACC2 construct which lacks the 128 amino acids at the N-terminus for increased solubility (nt 385-6966 in Genbank entry AJ575592) is cloned. The protein is then expressed in insect cells using a baculoviral expression system. Protein purification is performed by anion exchange.
# All compounds are dissolved in dimethyl sulfoxide (DMSO) to a concentration of 10 mM.
# Assay reactions are then carried out in 384-well plates, with hACC2 in an appropriate dilution and at final assay concentrations (f.c.) of 100 mM Tris (pH 7.5), 10 mM trisodium citrate, 25 mM KHCO3, 10 mM MgCl2, 0.5 mg/mL BSA, 3.75 mM reduced L-glutathione, 15 U/mL lactate dehydrogenase, 0.5 mM phosphoenolpyruvate, 15 U/mL pyruvate kinase, compounds at different concentrations at final DMSO concentrations of 1%.
# The enzymatic reaction is then started by addition of a mixture of NADH, acetyl Coenzyme A (both 200 μM f.c.) and ATP (500 uM f.c.). The decrease of the optical density (slope S) is then determined at 25° C. at a wavelength of 340 nm over 15 minutes in a spectrophotometric reader.
# Each assay microtiter plate contains wells with vehicle instead of compound as controls for the non-inhibited enzyme (100% CTL; ‘HIGH’) and wells without acetyl-CoA as controls for non-specific NADH degradation (0% CTL; ‘LOW’).
# The slope S is used for calculation of % CTL=(S(compound)−S(‘LOW’))/(S(‘HIGH’)−S(‘LOW’))*100. Compounds will give values between 100% CTL (no inhibition) and 0% CTL (complete inhibition).
# For IC50 value determination, the sample slope in the presence of the test compound after subtraction of the low controls (S(compound)−S(‘LOW’)) are used. An IC50 value is derived from the compound slopes at different dosages after subtraction of the low controls (S(compound)−S(‘LOW’)) by non-linear regression curve fitting (equation y=(A+((B−A)/(1+((C/x)^D))))).
# Chain of human ACC2 (O00763 129-2458): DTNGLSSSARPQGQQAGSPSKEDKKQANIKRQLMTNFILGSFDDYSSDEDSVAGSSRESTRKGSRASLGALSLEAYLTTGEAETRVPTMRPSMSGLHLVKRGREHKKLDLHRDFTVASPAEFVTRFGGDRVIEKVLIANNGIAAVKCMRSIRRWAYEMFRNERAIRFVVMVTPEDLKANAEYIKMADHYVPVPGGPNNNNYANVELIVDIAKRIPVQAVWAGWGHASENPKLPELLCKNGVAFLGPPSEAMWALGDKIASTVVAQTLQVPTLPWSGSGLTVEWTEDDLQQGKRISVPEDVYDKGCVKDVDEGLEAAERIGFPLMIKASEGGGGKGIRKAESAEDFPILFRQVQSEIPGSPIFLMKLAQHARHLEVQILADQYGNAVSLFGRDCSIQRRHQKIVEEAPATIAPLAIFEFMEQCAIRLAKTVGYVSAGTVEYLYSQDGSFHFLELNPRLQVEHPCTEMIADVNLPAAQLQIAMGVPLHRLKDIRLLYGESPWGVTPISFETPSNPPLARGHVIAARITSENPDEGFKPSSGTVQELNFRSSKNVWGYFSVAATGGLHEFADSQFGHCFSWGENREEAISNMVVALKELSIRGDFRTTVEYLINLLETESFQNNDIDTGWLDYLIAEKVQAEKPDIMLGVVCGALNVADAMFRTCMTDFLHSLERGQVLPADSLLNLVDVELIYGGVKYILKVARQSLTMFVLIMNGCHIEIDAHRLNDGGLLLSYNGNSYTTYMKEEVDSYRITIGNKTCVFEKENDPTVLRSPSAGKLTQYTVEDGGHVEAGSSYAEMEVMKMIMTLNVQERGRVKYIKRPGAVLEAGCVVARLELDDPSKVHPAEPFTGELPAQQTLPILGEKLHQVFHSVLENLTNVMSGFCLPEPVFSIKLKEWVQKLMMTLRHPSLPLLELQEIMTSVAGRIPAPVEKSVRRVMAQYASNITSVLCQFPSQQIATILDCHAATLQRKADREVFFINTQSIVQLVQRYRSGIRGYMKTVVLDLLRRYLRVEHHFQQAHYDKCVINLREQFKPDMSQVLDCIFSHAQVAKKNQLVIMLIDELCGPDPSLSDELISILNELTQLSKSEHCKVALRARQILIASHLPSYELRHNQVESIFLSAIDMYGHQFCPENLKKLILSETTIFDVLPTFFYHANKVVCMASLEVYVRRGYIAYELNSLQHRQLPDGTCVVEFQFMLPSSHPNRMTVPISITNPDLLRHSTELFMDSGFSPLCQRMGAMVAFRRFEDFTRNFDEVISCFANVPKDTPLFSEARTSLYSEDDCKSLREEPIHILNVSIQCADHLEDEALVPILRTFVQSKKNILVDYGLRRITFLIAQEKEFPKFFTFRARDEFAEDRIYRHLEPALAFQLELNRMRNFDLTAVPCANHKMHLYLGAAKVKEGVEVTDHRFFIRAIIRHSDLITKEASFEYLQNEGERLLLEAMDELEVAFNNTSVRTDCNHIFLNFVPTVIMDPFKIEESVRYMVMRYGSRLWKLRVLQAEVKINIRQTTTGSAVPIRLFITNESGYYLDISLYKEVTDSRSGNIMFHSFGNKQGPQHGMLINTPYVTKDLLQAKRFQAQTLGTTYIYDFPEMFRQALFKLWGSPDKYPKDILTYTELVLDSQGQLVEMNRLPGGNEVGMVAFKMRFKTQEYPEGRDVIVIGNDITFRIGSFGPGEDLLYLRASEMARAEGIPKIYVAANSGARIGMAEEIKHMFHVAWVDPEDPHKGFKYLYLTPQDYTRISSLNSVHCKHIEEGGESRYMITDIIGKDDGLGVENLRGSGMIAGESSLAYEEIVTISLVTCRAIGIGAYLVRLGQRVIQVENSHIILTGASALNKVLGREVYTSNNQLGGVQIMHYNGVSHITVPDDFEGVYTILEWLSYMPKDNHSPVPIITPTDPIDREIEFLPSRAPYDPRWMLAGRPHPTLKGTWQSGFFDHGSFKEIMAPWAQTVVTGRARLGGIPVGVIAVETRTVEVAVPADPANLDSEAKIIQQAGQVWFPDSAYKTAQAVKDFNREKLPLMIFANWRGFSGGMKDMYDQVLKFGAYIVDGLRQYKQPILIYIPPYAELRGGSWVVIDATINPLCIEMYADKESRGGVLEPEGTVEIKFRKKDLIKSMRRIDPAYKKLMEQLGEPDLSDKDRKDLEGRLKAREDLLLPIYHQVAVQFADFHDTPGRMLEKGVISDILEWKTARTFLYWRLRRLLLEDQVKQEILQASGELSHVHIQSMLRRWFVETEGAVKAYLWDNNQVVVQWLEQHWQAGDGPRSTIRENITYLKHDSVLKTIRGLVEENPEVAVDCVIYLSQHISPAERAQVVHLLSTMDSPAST
row,Compound,IC50 [nM]
1,CC(=O)NC(C)Cc1ccc(C#Cc2ccc(Oc3cncnc3)nc2)cc1 (stereo not shown) [Example 2.26],930
2,CCCOc1ccc(C#Cc2ccc(CC(C)NC(C)=O)cc2)cn1 (stereo not shown) [Example 2.27],280
3,CCOc1cc(C#Cc2ccc(CC(C)NC(C)=O)cc2)ccn1 (stereo not shown) [Example 2.28],270
4,CCOc1ccc(C#Cc2ccc(CC(C)NC(C)=O)cc2)nn1 (stereo not shown) [Example 2.29],1600
5,COc1ccc(C#Cc2ccc(CC(C)NC(C)=O)cc2)cc1 (stereo not shown) [Example 2.30],330
6,CCOc1ccc(C#Cc2ccc(CC(C)NC(C)=O)cc2)cn1 (stereo not shown) [Example 2.31],280
7,CCCOc1ccc(C#Cc2ccc(CC(C)NC(C)=O)cc2)c(OC)c1 (stereo not shown) [Example 2.32],160
8,CC(=O)NCC(C)(C)c1ccc(C#Cc2cnc(NC3CCC3)nc2)cc1 [Example 2.33],270
9,CC(=O)NCC(C)(C)c1ccc(C#Cc2cnc(OC3CCC3)nc2)cc1 [Example 2.34],180
10,CCCOc1ccc(C#Cc2ccc(C(C)(C)CNC(C)=O)cc2)cn1 [Example 2.35],130
11,CCCOc1ccc(C#Cc2ccc(C(C)(C)CNC(C)=O)cc2)cc1 [Example 2.36],140
12,CC(=O)NCC(C)(C)c1ccc(C#Cc2ccc(OCC3CC3)cc2)cc1 [Example 2.37],100
13,CC(=O)NC(C)(C)c1ccc(C#Cc2ccnc(OC(C)C)c2)cc1 [Example 2.38],10100
14,CC(=O)NC(C)(C)c1ccc(C#Cc2ccc(OC(C)C)nc2)cc1 [Example 2.39],21600
15,CCCOc1ccc(C#Cc2ccc(C(C)(C)NC(C)=O)cc2)c(OC)c1 [Example 2.40],11800
16,CCCOc1ccc(C#Cc2ccc(C(C)(C)NC(C)=O)cc2)cc1 [Example 2.41],25000
17,CC(=O)NC(C)(C)c1ccc(C#Cc2ccc(OC3CCC3)cc2)cc1 [Example 2.42],24600
18,CC(=O)NC(C)c1ccc(C#Cc2ccc(OC3CCCC3)nc2)cc1 (stereo not shown) [Example 2.43],450
19,CC(=O)NC(C)c1ccc(C#Cc2ccc(OC(C)(C)C)cc2)cc1 (stereo not shown) [Example 2.44],420
20,CC(=O)NC(C)c1ccc(C#Cc2ccc3c(c2)CCO3)cc1 (stereo not shown) [Example 2.45],250
21,CCCc1ccc(C#Cc2ccc(C(C)NC(C)=O)cc2)cc1 (stereo not shown) [Example 2.46],410
22,CC(=O)NC(C)c1ccc(C#Cc2ccc(OC(C)C)cc2)cc1 (stereo not shown) [Example 2.47],360
23,CC(=O)NC(C)c1ccc(C#Cc2ccc(OCC(C)C)cc2)cc1 (stereo not shown) [Example 2.48],260
24,CCCOc1ccc(C#Cc2ccc(C(C)NC(C)=O)cc2)cc1 (stereo not shown) [Example 2.49],250

row,Compound,IC50 [nM]
1,CC(=O)NC(C)c1ccc(C#Cc2ccc(OC(C)C)nc2)cc1 (stereo not shown) [Example 2.50],900
2,CCCOc1ccc(C#Cc2ccc(C(C)NC(C)=O)cc2)c(OC)c1 (stereo not shown) [Example 2.51],1300
3,CC(=O)NC(C)c1ccc(C#Cc2ccc(OC3CCCC3)cc2)cc1 (stereo not shown) [Example 2.52],190
4,CC(=O)NC(C)c1ccc(C#Cc2ccc(OC3CCC3)cc2)cc1 (stereo not shown) [Example 2.53],120
5,CCCOc1ccc(C#Cc2ccc(C(C)NC(C)=O)cc2)cn1 (stereo not shown) [Example 2.54],1200
6,CC(=O)NC(C)c1ccc(C#Cc2ccc(OC3CC3)cc2)cc1 (stereo not shown) [Example 2.55],70
7,COc1ccc(C#Cc2ccc(CC(C)NC(=O)C3CC3)cc2)cc1 (stereo not shown) [Example 2.56],960
8,CC(Cc1ccc(C#Cc2ccc(C(C)C)cc2)cc1)NC(=O)C1CC1 (stereo not shown) [Example 2.57],570
9,COc1ncc(C#Cc2ccc(CC(C)NC(=O)C3CC3)cc2)c(OC)n1 (stereo not shown) [Example 2.58],3700
10,CC(Cc1ccc(C#Cc2ccc(OC(F)F)cc2)cc1)NC(=O)C1CC1 (stereo not shown) [Example 2.59],2100
11,CCOc1cc(C#Cc2ccc(CC(C)NC(=O)C3CC3)cc2)ccn1 (stereo not shown) [Example 2.60],690
12,CC(Cc1ccc(C#Cc2ccc(OC(C)(C)C)cc2)cc1)NC(=O)C1CC1 (stereo not shown) [Example 2.61],2000
13,CC(Cc1ccc(C#Cc2ccc3c(c2)CCO3)cc1)NC(=O)C1CC1 (stereo not shown) [Example 2.62],740
14,CCCc1ccc(C#Cc2ccc(CC(C)NC(=O)C3CC3)cc2)cc1 (stereo not shown) [Example 2.63],460
15,COc1ccc(C#Cc2ccc(CC(C)NC(=O)C3CC3)cc2)cn1 (stereo not shown) [Example 2.64],2800
16,CC(Cc1ccc(C#Cc2ccc(OC(C)C)nc2)cc1)NC(=O)C1CC1 (stereo not shown) [Example 2.65],480
17,CC(Cc1ccc(C#Cc2ccc(OC3CCCC3)nc2)cc1)NC(=O)C1CC1 (stereo not shown) [Example 2.66],230
18,CC(Cc1ccc(C#Cc2ccc(C3CC3)cn2)cc1)NC(=O)C1CC1 (stereo not shown) [Example 2.67],7200
19,CCCOc1ccc(C#Cc2ccc(CC(C)NC(=O)C3CC3)cc2)c(OC)c1 (stereo not shown) [Example 2.68],250
20,COc1cc(C#Cc2ccc(CC(C)NC(=O)C3CC3)cc2)ccn1 (stereo not shown) [Example 2.69],2000
21,CCCOc1ccc(C#Cc2ccc(CC(C)NC(=O)C3CC3)cc2)cn1 (stereo not shown) [Example 2.70],800
22,COc1ccc(C#Cc2ccc(CC(C)NC(=O)C3CC3)cc2)cc1OC (stereo not shown) [Example 2.71],3400
23,CC(=O)NC(C)Cc1ccc(C#Cc2cnc3ccccc3c2)cc1 (stereo not shown) [Example 2.72],910
24,CC(=O)NC(C)Cc1ccc(C#Cc2ccc(N3CCOCC3)cc2)cc1 (stereo not shown) [Example 2.73],640

row,Compound,IC50 [nM]
1,CC(=O)NC(C)Cc1ccc(C#Cc2ccc3ncccc3c2)cc1 (stereo not shown) [Example 2.74],1100
2,CC(=O)NC(C)Cc1ccc(C#Cc2ccc(OC(C)(C)C)cc2)cc1 (stereo not shown) [Example 2.75],100
3,CC(=O)NC(C)Cc1ccc(C#Cc2ccc3c(c2)CCC3=O)cc1 (stereo not shown) [Example 2.76],5800
4,CC(=O)NC(C)Cc1ccc(C#Cc2ccc(Oc3ccccc3)nn2)cc1 (stereo not shown) [Example 2.77],1500
5,CC(=O)NC(C)Cc1ccc(C#Cc2cc(OCc3ccccc3)ncn2)cc1 (stereo not shown) [Example 2.78],750
6,CC(=O)NC(C)Cc1ccc(C#Cc2cnn(-c3ccccc3)c2)cc1 (stereo not shown) [Example 2.79],450
7,CC(=O)NC(C)Cc1ccc(C#Cc2ccc(C3CC3)cn2)cc1 (stereo not shown) [Example 2.80],740
8,CC(=O)NC(C)Cc1ccc(C#Cc2cc(C)c3c(c2)oc(=O)n3C)cc1 (stereo not shown) [Example 2.81],4000
9,CC(=O)NC(C)Cc1ccc(C#Cc2ccn(CC(C)C)c(=O)c2)cc1 (stereo not shown) [Example 2.82],1600
10,COCCn1ccc(C#Cc2ccc(CC(C)NC(C)=O)cc2)cc1=O (stereo not shown) [Example 2.83],17700
11,CC(=O)NC(C)Cc1ccc(C#Cc2ccn(C(C)C)c(=O)c2)cc1 (stereo not shown) [Example 2.84],5800
12,CCCCn1ccc(C#Cc2ccc(CC(C)NC(C)=O)cc2)cc1=O (stereo not shown) [Example 2.85],1100
13,CC(=O)NC(C)Cc1ccc(C#Cc2ccc(OC(C)C)nn2)cc1 (stereo not shown) [Example 2.86],930
14,CCn1ccc(C#Cc2ccc(CC(C)NC(C)=O)cc2)cc1=O (stereo not shown) [Example 2.87],12900
15,CCCCOc1ccc(C#Cc2ccc(CC(C)NC(C)=O)cc2)nn1 (stereo not shown) [Example 2.88],880
16,COCCOc1ccc(C#Cc2ccc(CC(C)NC(C)=O)cc2)nn1 (stereo not shown) [Example 2.89],16400
17,CCCOc1ccc(C#Cc2ccc(CC(C)NC(C)=O)cc2)c(C(N)=O)c1 (stereo not shown) [Example 2.90],5200
18,CC(=O)NC(C)Cc1ccc(C#Cc2ccnc(Oc3cncnc3)c2)cc1 (stereo not shown) [Example 2.91],400
19,CCCOc1ccc(C#Cc2ccc(CC(C)NC(C)=O)cc2)c(C#N)c1 (stereo not shown) [Example 2.92],170
20,CCCOc1ccc(C#Cc2ccc(CC(C)NC(C)=O)cc2)c(Cl)c1 (stereo not shown) [Example 2.93],80
21,COc1cc(C#Cc2ccc(CC(C)NC(C)=O)cc2)ccn1 (stereo not shown) [Example 2.94],260
22,CCCOc1ccc(C#Cc2ccc(CC(C)NC(C)=O)cc2)c(C)c1 (stereo not shown) [Example 2.95],110
